Results from patent publication US20230312473A1, “PROCESS FOR THE PREPARATION OF BIHETEROARYL COMPOUNDS AND CRYSTAL FORMS THEREOF” (Genentech, Inc., priority 2020, published 2023).
Read-outs that look alike come from different tables or passages of the source.

Assay: Solubility of compound 1 in the solvent under evaluation at 22° C. and 65° C. (crystallization study)
Assay type: physicochemical
Description: Crystalline compound 1 was evaluated. Crystallization study procedures were done based on the solubility of compound 1 in the solvent under evaluation as follows.
The results are presented below in Table 10 where: * refers to compound 1 prepared as described above; and ** refers to compound 1 prepared as described above and further incubated at 100% relative humidity at 22° C. for 17 days.

In the case of `Nc1ncc(-c2cc(N3C[C@@H]4C[C@H]3CO4)nc(N3CCC(F)(F)C3)n2)cc1OC(F)F` [Compound 1, 5-(6-((1S,4S)-2-oxa-5-azabicyclo[2.2.1]heptan-5-yl)-2-(3,3-difluoropyrrolidin-1-yl)pyrimidin-4-yl)-3-(difluoromethoxy)pyridin-2-amine], the solubility (2-methyl THF, 22 °C, organic solvent or mixture, thermodynamic from solid, solvent: 2-methyl THF, read-out: Solubility at 22° C.) is reported as under 50 mg/mL, the solubility (2-methyl THF, 65 °C, organic solvent or mixture, solvent: 2-methyl THF, read-out: Solubility at 65° C.) is reported as over 50 mg/mL and the solubility (5% water in ethanol, 22 °C, organic solvent or mixture, thermodynamic from solid, solvent: 5% water in ethanol, read-out: Solubility at 22° C.) is reported as under 50 mg/mL. The solubility (5% water in ethanol, 65 °C, organic solvent or mixture, solvent: 5% water in ethanol, read-out: Solubility at 65° C.) was under 50 mg/mL, the solubility (5% water in isopropanol, 22 °C, organic solvent or mixture, thermodynamic from solid, solvent: 5% water in isopropanol, read-out: Solubility at 22° C.) was under 50 mg/mL and the solubility (5% water in isopropanol, 65 °C, organic solvent or mixture, solvent: 5% water in isopropanol, read-out: Solubility at 65° C.) was under 50 mg/mL. For the same compound, the solubility (5% water in methanol, 22 °C, organic solvent or mixture, thermodynamic from solid, solvent: 5% water in methanol, read-out: Solubility at 22° C.) was under 50 mg/mL, the solubility (5% water in methanol, 65 °C, organic solvent or mixture, solvent: 5% water in methanol, read-out: Solubility at 65° C.) was under 50 mg/mL and the solubility (5% water in propanol, 22 °C, organic solvent or mixture, thermodynamic from solid, solvent: 5% water in propanol, read-out: Solubility at 22° C.) was under 50 mg/mL. The solubility (5% water in propanol, 65 °C, organic solvent or mixture, solvent: 5% water in propanol, read-out: Solubility at 65° C.) was under 50 mg/mL, the solubility (15% water in THF, 22 °C, organic solvent or mixture, thermodynamic from solid, solvent: 15% water in THF, read-out: Solubility at 22° C.) was over 50 mg/mL and the solubility (15% water in acetone, 22 °C, organic solvent or mixture, thermodynamic from solid, solvent: 15% water in acetone, read-out: Solubility at 22° C.) was under 50 mg/mL. It also gave a solubility (15% water in acetone, 65 °C, organic solvent or mixture, thermodynamic from solid, solvent: 15% water in acetone, read-out: Solubility at 65° C.) of over 50 mg/mL, a solubility (15% water in ethanol, 22 °C, organic solvent or mixture, thermodynamic from solid, solvent: 15% water in ethanol, read-out: Solubility at 22° C.) of under 50 mg/mL and a solubility (15% water in ethanol, 65 °C, organic solvent or mixture, thermodynamic from solid, solvent: 15% water in ethanol, read-out: Solubility at 65° C.) of under 50 mg/mL. The solubility (15% water in isopropanol, 22 °C, organic solvent or mixture, thermodynamic from solid, solvent: 15% water in isopropanol, read-out: Solubility at 22° C.) was under 50 mg/mL, the solubility (15% water in isopropanol, 65 °C, organic solvent or mixture, thermodynamic from solid, solvent: 15% water in isopropanol, read-out: Solubility at 65° C.) was under 50 mg/mL and the solubility (15% water in methanol, 22 °C, organic solvent or mixture, thermodynamic from solid, solvent: 15% water in methanol, read-out: Solubility at 22° C.) was under 50 mg/mL. It also gave a solubility (15% water in methanol, 65 °C, organic solvent or mixture, solvent: 15% water in methanol, read-out: Solubility at 65° C.) of under 50 mg/mL, a solubility (15% water in propanol, 22 °C, organic solvent or mixture, thermodynamic from solid, solvent: 15% water in propanol, read-out: Solubility at 22° C.) of under 50 mg/mL and a solubility (15% water in propanol, 65 °C, organic solvent or mixture, solvent: 15% water in propanol, read-out: Solubility at 65° C.) of under 50 mg/mL. For the same compound, the solubility (20% water in acetonitrile, 22 °C, organic solvent or mixture, thermodynamic from solid, solvent: 20% water in acetonitrile, read-out: Solubility at 22° C.) was under 50 mg/mL, the solubility (20% water in acetonitrile, 65 °C, organic solvent or mixture, solvent: 20% water in acetonitrile, read-out: Solubility at 65° C.) was over 50 mg/mL and the solubility (50% water in acetonitrile, 22 °C, aqueous with cosolvent or surfactant or cyclodextrin, thermodynamic from solid, solvent: 50% water in acetonitrile, read-out: Solubility at 22° C.) was under 50 mg/mL. The solubility (50% water in acetonitrile, 65 °C, aqueous with cosolvent or surfactant or cyclodextrin, solvent: 50% water in acetonitrile, read-out: Solubility at 65° C.) was under 50 mg/mL, the solubility (50% water in ethanol, 22 °C, aqueous with cosolvent or surfactant or cyclodextrin, thermodynamic from solid, solvent: 50% water in ethanol, read-out: Solubility at 22° C.) was under 50 mg/mL and the solubility (50% water in ethanol, 65 °C, aqueous with cosolvent or surfactant or cyclodextrin, solvent: 50% water in ethanol, read-out: Solubility at 65° C.) was under 50 mg/mL. For the same compound, the solubility (50% water in isopropanol, 22 °C, aqueous with cosolvent or surfactant or cyclodextrin, thermodynamic from solid, solvent: 50% water in isopropanol, read-out: Solubility at 22° C.) was under 50 mg/mL, the solubility (50% water in isopropanol, 65 °C, aqueous with cosolvent or surfactant or cyclodextrin, solvent: 50% water in isopropanol, read-out: Solubility at 65° C.) was under 50 mg/mL and the solubility (50% water in methanol, 22 °C, aqueous with cosolvent or surfactant or cyclodextrin, thermodynamic from solid, solvent: 50% water in methanol, read-out: Solubility at 22° C.) was under 50 mg/mL. For the same compound, the solubility (50% water in methanol, 65 °C, aqueous with cosolvent or surfactant or cyclodextrin, solvent: 50% water in methanol, read-out: Solubility at 65° C.) was under 50 mg/mL, the solubility (50% water in propanol, 22 °C, aqueous with cosolvent or surfactant or cyclodextrin, thermodynamic from solid, solvent: 50% water in propanol, read-out: Solubility at 22° C.) was under 50 mg/mL and the solubility (50% water in propanol, 65 °C, aqueous with cosolvent or surfactant or cyclodextrin, solvent: 50% water in propanol, read-out: Solubility at 65° C.) was under 50 mg/mL. For the same compound, the solubility (80% water in acetonitrile, 22 °C, aqueous with cosolvent or surfactant or cyclodextrin, thermodynamic from solid, solvent: 80% water in acetonitrile, read-out: Solubility at 22° C.) was under 50 mg/mL, the solubility (80% water in acetonitrile, 65 °C, aqueous with cosolvent or surfactant or cyclodextrin, solvent: 80% water in acetonitrile, read-out: Solubility at 65° C.) was under 50 mg/mL and the solubility (Acetic acid, 22 °C, organic solvent or mixture, thermodynamic from solid, solvent: Acetic acid, read-out: Solubility at 22° C.) was over 100 mg/mL. It also gave a solubility (Acetonitrile, 22 °C, organic solvent or mixture, thermodynamic from solid, solvent: Acetonitrile, read-out: Solubility at 22° C.) of under 50 mg/mL, a solubility (Acetonitrile, 65 °C, organic solvent or mixture, solvent: Acetonitrile, read-out: Solubility at 65° C.) of over 50 mg/mL and a solubility (Chloroform, 22 °C, organic solvent or mixture, thermodynamic from solid, solvent: Chloroform, read-out: Solubility at 22° C.) of under 50 mg/mL. For the same compound, the solubility (Chloroform, 65 °C, organic solvent or mixture, solvent: Chloroform, read-out: Solubility at 65° C.) was over 50 mg/mL, the solubility (DMA, 22 °C, organic solvent or mixture, thermodynamic from solid, solvent: DMA, read-out: Solubility at 22° C.) was over 200 mg/mL and the solubility (DMF, 22 °C, organic solvent or mixture, thermodynamic from solid, solvent: DMF, read-out: Solubility at 22° C.) was over 100 mg/mL. For the same compound, the solubility (DMSO, 22 °C, organic solvent or mixture, thermodynamic from solid, solvent: DMSO, read-out: Solubility at 22° C.) was over 100 mg/mL, the solubility (Dichloromethane, 22 °C, organic solvent or mixture, thermodynamic from solid, solvent: Dichloromethane, read-out: Solubility at 22° C.) was under 50 mg/mL and the solubility (Dichloromethane, 65 °C, organic solvent or mixture, solvent: Dichloromethane, read-out: Solubility at 65° C.) was over 50 mg/mL.
